One data set relates to FcγIIb. In words: Inhibition of FcR binding: reverse ELISA, PAP immune complexes on FcγIIb coated plates (Example 3). The settings on record: plates read at 450 nm, (+) control PAP with no peptide 3.600. As to the method: (§1) Inhibition of FcR binding: Once the reverse ELISA protocol was established using the C1q assay, the assay was redesigned using FcγIIa, FcγIIb and FcγIII in place of C1q. Highly purified FcγIIa, FcγIIb and FcγIII were immunoadsorbed onto plastic microwells. After optimizing the FcγR reverse ELISA system, simple competitive inhibition experiments using polypeptides of the invention were conducted to investigate their ability to inhibit binding of immune complexes to purified FcγR.
(§2) Falcon microtiter plates were coated with 1:10 dilutions of highly purified FcγIIa, FcγIIb and FcγIII and incubated for 24 hours. […] Equal amounts (50 μl) of peptide and 1:10 PAP immune complexes were pre-incubated for one hour and then incubated on the FcR coated plates for one hour. […] Stop solution (10 μl) was added and the plates were read at 450 nm.
(In general: An ELISA detects its analyte on a solid surface through an enzyme-linked reagent.)

A further data set deals with histone. The data set can be described thus: Inhibition of histone binding: PAP immune complexes on histone-coated plates (Example 3). The settings on record: rabbit PAP pre-incubated with peptides or histone one hour; (+) control buffer only 1.268. The method, then: Inhibition of histone binding: The binding of immune complexes to the kidneys in lupus nephritis appears to involve (a) the binding of histones to the GBM, and then (b) the binding of immune complexes (through the IgG Fc CH2-CH3 cleft) to the bound histones. Experiments similar to those described above were used to inhibit binding of purified histone to IgG Fc binding. Histone (Sigma) was diluted 1:10 in coating buffer (Alpha Diagnostic International) and incubated on Falcon microtiter plates for 24 hours. Plates were blocked with 5× BSA blocking solution (Alpha Diagnostic International) for 24 hours. Freshly prepared 1:10 rabbit PAP (Sigma) was pre-incubated with either peptides or histone for one hour, and 100 μl of the mixture was added to the histone-coated plates for one hour. Plates were incubated with ABTS substrate (Quidel Corp.) for 45 minutes, and OD 405 was read.

The test system of another data set is whole human IgG4. In words: Inhibition of Fc:Fc interactions: immune complexes on IgG4 coated microwells (Example 3). In kind it is binding. As to conditions: for OD 405 nm: IgG4 coated microwells, positive control (buffer) 0.716. From the text:
Inhibition of Fc:Fc interactions: The Fc region of IgG4 interacts in an Fc to Fc fashion with immune complexed IgG. Purified IgG4 is used with polypeptides of the invention to examine inhibition of immune complex formation and Fc:Fc interactions. Chemical modification of His435, a critical IgG Fc amino acid bound by polypeptides of the invention, is known to inhibit Fc:Fc interactions.

Another data set concerns MBP. The settings on record: rabbit PAP pre-incubated with peptide or MBP 30 minutes; (+) control buffer only 1.033. The method, then:
Inhibition of MBP binding: MBP (Sigma) was diluted 1:10 with coating buffer (Alpha Diagnostic International) and incubated for 24 hours on Falcon microtiter plates. Plates were washed and then blocked with 5× BSA blocking buffer (Alpha Diagnostic International) for 24 hours. Rabbit 1:10 PAP immune complexes were pre-incubated with equal amounts of peptide or MBP for 30 minutes. One hundred μl of PAP immune complexes/peptide or PAP/MBP was then added to the MBP-coated plates and incubated for one hour. The plates were washed and incubated with TMB substrate (Alpha Diagnostic International) for 30 minutes. After adding stop solution (Alpha Diagnostic International), the plates were read at 450 nm.
Further experiments were conducted to determine the effect of SEQ ID NO:47 (also referred to as NB-406) on binding of MBP to IgG PAP immune complexes.

A further data set deals with FcγIII. The data set can be described thus: Inhibition of FcR binding: reverse ELISA, PAP immune complexes on FcγIII coated plates (Example 3). The settings on record: plates read at 450 nm, (+) control PAP with no peptide 3.600. The method, then:
as §1, §2

Another data set concerns FcγIIa. The data set can be described thus: Inhibition of FcR binding: reverse ELISA, PAP immune complexes on FcγIIa coated plates (Example 3). The settings on record: plates read at 450 nm, (+) control PAP with no peptide 3.600. As to the method: as §1, §2
For a further data set, the system named is human monomeric IgG. The data set can be described thus: Inhibition of rheumatoid factor binding to monomeric IgG (Example 4). The settings on record: peptides pre-incubated 30 minutes with monomeric IgG, then 200 I.U. RF; (+) control buffer only 1.376. The method, then: The ability of the peptides to inhibit the binding of rheumatoid factor to monomeric IgG was tested. Binding to monomeric IgG may be important, as it may increase the half-life of particular peptides and allow them to be more bioactive.
A standard rheumatoid factor commercial test was used (Research Diagnostics) with the following modifications: 100 μl of test peptides were pre-incubated for 30 minutes with human monomeric IgG (Research Diagnostics). Plates were washed and incubated with 200 I.U. rheumatoid factor positive control supplied with the test kit. The rest of the test was performed according to the manufacturer's instructions.

The test system of the next data set is polyclonal IgM RF. The data set can be described thus: Inhibition of RF binding: PAP immune complexes on rheumatoid factor coated plates (Example 3). As to conditions: for OD 405 nm: PAP pre-incubated 30 minutes with peptides or RF, (+) control PAP with no peptide 0.753; for inhibition of RF binding to immune complexes, in words: Table 3. As to the method: Inhibition of RF binding: The assay to test inhibition of RF binding to the IgG Fc CH2-CH3 clefts was very similar to the C1q-CIC EIA assay described above, with the exception that polyclonal IgM RF was coated onto the microwells instead of C1q. […] High titer, RF positive sera were purchased from Research Diagnostics (Flanders, N.J.).
A 1:10 dilution of 200 μl of 200 I.U. rheumatoid factor (RF) (+) control (positive standard provided by Research Diagnostics was coated onto Falcon microtiter plates and incubated for 24 hours. The plates were blocked with 1:5 BSA blocking buffer (Alpha Diagnostic International) for one hour. Freshly prepared 1:10PAP (antigen:antibody) immune complexes were pre-incubated for 30 minutes with peptides or RF (positive control containing only buffer). After washing, plates were incubated with ABTS substrate (Research Diagnostics) for 30 minutes and then read at 405 nm. Results are shown in Table 3.

Data set [1] concerns DBA/1J mice with collagen-induced arthritis.
For the next data set, the system named is C1q. In words: Inhibition of C1q binding: reverse ELISA, PAP immune complexes on C1q coated plates (Example 3). Set-up: species or system human. As to conditions: for OD 405 nm: peptide or C1q pre-incubated with PAP 30 minutes, (+) control PAP with no peptide 0.467, lower OD = more inhibition. From the text:
For this reason, a “reverse ELISA” technique is used to assess binding of the Fc region to ligands that bind to immune complexed IgG Fc. In a reverse ELISA, the enzyme (e.g., HRP) is not covalently conjugated to the Fc portion of the secondary antibody. Rather, a preformed immune complex of peroxidase-rabbit (or mouse) anti-peroxidase IgG (“PAP” complex) is used. […] In the absence of competitor, PAP complexes bind to the immobilized ligand and the reaction between HRP and its substrate produces a signal. This signal is reduced by polypeptides and compounds of the invention that inhibit PAP binding to the immobilized ligand.
Inhibition of C1q binding: Twenty μl of peroxidase (P) (Sigma) was diluted in 2 ml of sample diluent (Quidel Corp, San Diego, Calif.). Twenty μl of anti-peroxidase (AP) (Sigma) was diluted in 2 ml of sample diluent, and 20 μl of the diluted AP was added to the diluted P (1:100 antigen:antibody ratio) to form peroxidase-anti-peroxidase (PAP) complexes. The extreme antigen excess guaranteed that any single antibody would be bound to two peroxidase molecules and larger immune complexes would not form, thus preventing the bridging of larger immune complexes to multimeric C1q (heximeric). One hundred μl of peptide or C1q was pre-incubated with freshly prepared PAP for 30 minutes, added to C1q coated plates (Quidel Corp.), and incubated for one hour. After washing, ABTS substrate (Quidel Corp.) was added to the plates and incubated for 30 minutes, and the plates were read at 405 nm. All peptides were cyclized by forming a disulfide bond between the two cysteine residues.

[2] abbreviates: 10 mg/kg, versus diseased control.

The results in this text go back to patent US7786258B2, “Methods for inhibiting immune complex formation in a subject” (Trinity Therapeutics, Inc., priority 2004, dated 2010).

Where two headings read alike, the source gives them in different places. Positions of bridges follow the written chain, without caps; N, C: chain ends. Residues, ends and D or L forms follow the SMILES beside them. No end group written: not given here.

Chain of whole human IgG4 (P01861 99-327 isoform P01861-1 limits assumed): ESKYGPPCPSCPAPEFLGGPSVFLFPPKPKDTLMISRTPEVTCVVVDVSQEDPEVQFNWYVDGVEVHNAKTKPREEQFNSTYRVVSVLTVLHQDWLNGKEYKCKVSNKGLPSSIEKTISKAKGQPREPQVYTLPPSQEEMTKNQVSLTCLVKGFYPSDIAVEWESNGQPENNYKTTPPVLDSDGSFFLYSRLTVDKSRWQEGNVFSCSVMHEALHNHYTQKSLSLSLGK

As for “DCAWHLGELAACT (disulfide 2-12 (inferred)) [peptide substituted with alanine at positions 10 and 11]”, in the data set with FcγIIb, the “OD at 450 nm (PAP binding to FcγIIb)” value came out at 1.067. Moreover, the “OD 405 nm” value in the data set on histone stood at 0.729; in the data set with whole human IgG4, 0.557; in the data set on MBP, 0.706; in the data set on human monomeric IgG it was 1.397; in the data set with polyclonal IgM RF, 0.622. In the data set on FcγIII, the “OD 450 nm (PAP immune complex binding)” value was found to be 1.345. For the same molecule, in the data set on FcγIIa, the “PAP immune complex binding (OD at 450 nm)” value is 1.484.
Regarding “APPDCARHLGELVWCT (Synthetically generated polypeptide)”, the “OD 405 nm” value in the data set on whole human IgG4 is 0.107.
For the molecule `CC(C)C[C@@H]1NC(=O)[C@H](Cc2c[nH]cn2)NC(=O)[C@H](Cc2c[nH]c3ccccc23)NC(=O)[C@H](C)NC(=O)[C@@H](NC(=O)[C@@H](N)CC(=O)O)CSSC[C@@H](C(=O)N[C@H](C(=O)O)[C@@H](C)O)NC(=O)[C@H](Cc2c[nH]c3ccccc23)NC(=O)[C@H](C(C)C)NC(=O)[C@H](CC(C)C)NC(=O)[C@H](CCC(=O)O)NC(=O)CNC1=O`, in data set [1] (daily subcutaneous injections day 32 to day 47, all doses, injection sites examined daily), the “adverse reactions at injection sites” value was “no adverse reactions were observed”. For the same molecule, the “maximum inhibition of arthritic symptoms” value in data set [1] (mouse, in vivo) is recorded as 37%.
As to “PCARHLGELVWCT (disulfide 2-12 (inferred))”, in the data set with FcγIIb, the “OD at 450 nm (PAP binding to FcγIIb)” value is 1.211. Moreover, the “OD 405 nm” value was 0.444 in the data set with histone; 0.205 in the data set on C1q; 0.129 in the data set on whole human IgG4; 0.489 in the data set with MBP; 1.323 with human monomeric IgG; 0.106 with polyclonal IgM RF. In addition, the “OD 450 nm (PAP immune complex binding)” value with FcγIII stood at 1.602. In the data set on FcγIIa, the “PAP immune complex binding (OD at 450 nm)” value is given as 1.149. Besides, the “inhibition of RF binding to immune complexes, in words” value in the data set on polyclonal IgM RF is recorded as “very effective inhibition”.
“REMICADE: REMICADE® was obtained from Centocor (Malvern, Pa.)”: in data set [1] (10 mg/kg), the “effect on arthritic symptoms, in words” value was “no effect” and the “effect on histological symptoms of arthritis, in words” value is reported as “no effect”. Further, the “Arthritic Index” value in data set [1] (10 mg/kg subcutaneously daily, average over final three days of treatment, diseased control 3.8) was 3.8. For the same molecule, the “Histological Evaluation” value in [1] (10 mg/kg, hindlimbs, day 48, diseased control 45) is listed as 45. In addition, in data set [1] (setting [2]), the “Arthritic Index Percent Change” value was found to be 0% and the “Histological Evaluation Percent Change” value stood at 0%. Besides, the “adverse reactions at injection sites” value in data set [1] (mouse, in vivo, sc) is reported as “no adverse reactions were observed”.
For the molecule “RCARHLGELVWCT (disulfide 2-12 (inferred))”, the “OD at 450 nm (PAP binding to FcγIIb)” value with FcγIIb was 3.284. The “OD 405 nm” value is reported as 0.359 with histone; 0.247 in the data set on C1q; 0.191 in the data set on whole human IgG4; 0.569 in the data set with MBP; 1.314 in the data set with human monomeric IgG; 0.152 with polyclonal IgM RF. In addition, in the data set with FcγIII, the “OD 450 nm (PAP immune complex binding)” value stood at 3.502. The “PAP immune complex binding (OD at 450 nm)” value with FcγIIa is given as 3.398.
In the case of “DCAAHLGELAACT (disulfide 2-12 (inferred))”, in the data set on FcγIIb, the “OD at 450 nm (PAP binding to FcγIIb)” value was found to be 2.263. Moreover, the “inhibition of immune complex binding to solid phase C1q, in words” value with C1q (Table 1) is “not significantly different from the positive control”. Besides, the “OD 405 nm” value with C1q is 0.458; in the data set with human monomeric IgG it was 1.421. Moreover, the “OD 450 nm (PAP immune complex binding)” value in the data set with FcγIII came to 2.413. Also, the “PAP immune complex binding (OD at 450 nm)” value with FcγIIa turned out to be 2.434.
`CC(C)C[C@@H]1NC(=O)[C@H](Cc2c[nH]cn2)NC(=O)[C@H](CCCNC(=N)N)NC(=O)[C@H](C)NC(=O)[C@@H](NC(=O)[C@@H]2CCCN2C(=O)[C@@H]2CCCN2C(=O)[C@H](C)N)CSSC[C@@H](C(=O)N[C@H](C(=O)O)[C@@H](C)O)NC(=O)[C@H](Cc2c[nH]c3ccccc23)NC(=O)[C@H](C(C)C)NC(=O)[C@H](CC(C)C)NC(=O)[C@H](CCC(=O)O)NC(=O)CNC1=O` (HELM PEPTIDE1{A.P.P.C.A.R.H.L.G.E.L.V.W.C.T}$PEPTIDE1,PEPTIDE1,4:R3-14:R3$$$V2.0): the “adverse reactions at injection sites” value in [1] (mouse, in vivo, sc) is “no adverse reactions were observed”.
As to “DCARHLGELVWCT (disulfide 2-12 (inferred))”, the “OD at 450 nm (PAP binding to FcγIIb)” value in the data set with FcγIIb was 1.952. In addition, the “OD 405 nm” value amounted to 0.363 in the data set with histone; 0.193 in the data set on C1q; 0.096 with whole human IgG4; 0.473 in the data set on MBP; 1.231 in the data set with human monomeric IgG; 0.109 in the data set on polyclonal IgM RF. Also, the “inhibition of Fc:Fc binding, in words” value in the data set with whole human IgG4 (text on Table 8) is reported as “strongest inhibition”. The “OD 450 nm (PAP immune complex binding)” value in the data set on FcγIII worked out at 2.529. In the data set on FcγIIa, the “PAP immune complex binding (OD at 450 nm)” value is given as 2.539. Moreover, in the data set with polyclonal IgM RF, the “inhibition of RF binding to immune complexes, in words” value was “very effective inhibition”.
